According to patent US20240043379A1, “PRODRUGS OF CYTOTOXIC ACTIVE AGENTS HAVING ENZYMATICALLY CLEAVABLE GROUPS” (Bayer Pharma Aktiengesellschaft, priority 2016, published 2024):

Legend:
[1] = Caco-2 flux assay for cell permeability; format: in vitro ADME; settings: human; for Papp B→A at 2 h: Caco-2, 2 hours incubation; for efflux ratio at 2 h: ratio of Papp (B-A) to Papp (A-B), Caco-2
[2] = system: NCI-H292: human mucoepidermoid lung carcinoma cells; test: MTT assay, cytotoxic effect on NCI-H292; format: cell-based; settings: Table 2, metabolites and small-molecule reference examples
Procedure: (§1) The analysis of the cytotoxic effects of the ADCs was carried out with various cell lines:
(§2) The cells were cultivated by the standard method as stated by the American Tissue Culture Collection (ATCC) or the Leibniz-Institut DSMZ-Deutsche Sammlung von Mikroorganismen und Zellkulturen GmbH (DSMZ) for the cell lines in question.
(§3) The cells were then incubated in an incubator at 37° C., and 5% carbon dioxide. […] To this end, the MTT reagent was incubated with the cells for 4 h, followed by lysis of the cells overnight by addition of the detergent. […] The measured data were used to calculate the IC50 of the growth inhibition using the DRC (dose response curve). The proliferation of cells which were not treated with test substance but were otherwise identically treated was defined as the 100% figure.

[3] = system: SK-HEP-1: human liver cell cancer line; test: MTT assay, cytotoxic effect on SK-HEP-1; format: cell-based; settings: Table 2, metabolites and small-molecule reference examples
Procedure: as §1, §2, §3

[4] = system: KPL4: human breast cancer cell line; test: MTT assay, cytotoxic effect on KPL4; format: cell-based; settings: Table 2, metabolites and small-molecule reference examples
Procedure: as §1, §2, §3

Caco-2 cells = test: Caco-2 flux assay for cell permeability; format: in vitro ADME; settings: Caco-2, 2 hours incubation

SMILES	Papp B→A at 2 h [1]	efflux ratio at 2 h [1]	IC50 [2]	IC50 [3]	Papp (B-A) (Caco-2 cells)	other results
CC(C)(C)[C@H](c1cc(-c2cc(F)ccc2F)cn1Cc1ccccc1)N(CC[C@H](N)C(=O)NCCNC(=O)CCCC(=O)NCCCC[C@H](N)C(=O)O)C(=O)CO.O=C(O)C(F)(F)F [Example M29, N^6-(5-{[2-({(2S)-2-Amino-4-[{(1R)-1-[1-benzyl-4-(2,5-difluorophenyl)-1H-pyrrol-2-yl]-2,2-dimethylpropyl}(glycoloyl)amino]butanoyl}amino)ethyl]amino}-5-oxopentanoyl)-L-lysine/trifluoroacetic acid (1:1)]	0.41 ×10⁻⁶ cm/s	5.3				
CC(C)(C)[C@H](c1cc(-c2cc(F)ccc2F)cn1Cc1ccccc1)N(CCCN)C(=O)CSC[C@H](NC(=O)CCOCCOCCOCCOCCNC(=O)CNC(=O)CC(SC[C@H](N)C(=O)O)C(=O)O)C(=O)O.O=C(O)C(F)(F)F.O=C(O)C(F)(F)F (stereo partly drawn) [Example M20, (1R,4R,27R,33R)-1-Amino-32-(3-aminopropyl)-33-[1-benzyl-4-(2,5-difluorophenyl)-1H-pyrrol-2-yl]-34,34-dimethyl-6,9,25,31-tetraoxo-13,16,19,22-tetraoxa-3,29-dithia-7,10,26,32-tetraazapentatriacontane-1,4,27-tricarboxylic acid/trifluoroacetic acid (1:2)]	0.09 ×10⁻⁶ cm/s					
CC(C)(C)[C@H](c1cc(-c2cc(F)ccc2F)cn1Cc1ccccc1)N(CC[C@H](N)C(=O)NCCNC(=O)CNC(=O)CCCC(=O)NCCCC[C@H](N)C(=O)O)C(=O)CO.O=C(O)C(F)(F)F [Example M28, N^6-{(3R,7S)-7-Amino-3-[1-benzyl-4-(2,5-difluorophenyl)-1H-pyrrol-2-yl]-4-glycoloyl-2,2-dimethyl-8,13,16,20-tetraoxo-4,9,12,15-tetraazaicosan-20-yl}-L-lysine/trifluoroacetic acid (1:1)]	0.19 ×10⁻⁶ cm/s	1				
CC(C)(C)[C@H](c1cc(-c2cc(F)ccc2F)cn1Cc1ccccc1)N(CC[C@H](N)C(=O)NCCNC(=O)CNC(=O)C(CC(=O)O)SC[C@H](N)C(=O)O)C(=O)CO (single isomer, unassigned) [Example M16]			0.143 µM	0.044 µM		IC50 [4]: 0.195 µM
CC(C)(C)[C@H](c1cc(-c2cc(F)ccc2F)cn1Cc1ccccc1)N(CC[C@H](N)C(=O)NCCNC(=O)CNC(=O)CC(SC[C@H](N)C(=O)O)C(=O)O)C(=O)CO.O=C(O)C(F)(F)F (stereo partly drawn) [Example M26, 4-[(2-{[2-({(2S)-2-Amino-4-[{(1R)-1-[1-benzyl-4-(2,5-difluorophenyl)-1H-pyrrol-2-yl]-2,2-dimethylpropyl}(glycoloyl)amino]butanoyl}amino)ethyl]amino}-2-oxoethyl)amino]-2-{[(2R)-2-amino-2-carboxyethyl]sulphanyl}-4-oxobutanoic acid/trifluoroacetic acid (1:1)]			0.0638 µM	0.019 µM	1.3 ×10⁻⁶ cm/s	
CC(C)(C)[C@H](c1cc(-c2cc(F)ccc2F)cn1Cc1ccccc1)N(CC[C@H](N)C(=O)N[C@H](CCC(=O)O)C(=O)O)C(=O)CO.O=C(O)C(F)(F)F [Example M25, N-{(2S)-2-Amino-4-[{(1R)-1-[1-benzyl-4-(2,5-difluorophenyl)-1H-pyrrol-2-yl]-2,2-dimethylpropyl}(glycoloyl)amino]butanoyl}-L-glutamic acid/trifluoroacetic acid (1:1)]					0.81 ×10⁻⁶ cm/s	IC50 ([2]; Homo sapiens, NCI-H292): 0.5 µM; IC50 ([3]; Homo sapiens, SK-HEP1): 0.5 µM; IC50 ([4]; Homo sapiens, KPL4): 0.5 µM
